For the assay, the target named is human 11β-HSD1 (Homo sapiens, UniProt P28845). As to the kind of experiment: Biological Test Example 1: inhibition of a microsomal preparation of 11β-HSD1 (SPA). The assay is classed as biochemical. The settings on record: microsomes from CHO cells overexpressing human 11β-HSD1; for inhibition at 0.1 µM: at 100 nM; for IC50: read-out: IC50 Range.

Some results are limits rather than exact numbers.

Broadly, the inhibition is the relative decrease from the control value, in per cent. As usually defined, the IC50 is the concentration needed to halve the response being measured.

Sequence of human 11β-HSD1 (P28845 whole entry): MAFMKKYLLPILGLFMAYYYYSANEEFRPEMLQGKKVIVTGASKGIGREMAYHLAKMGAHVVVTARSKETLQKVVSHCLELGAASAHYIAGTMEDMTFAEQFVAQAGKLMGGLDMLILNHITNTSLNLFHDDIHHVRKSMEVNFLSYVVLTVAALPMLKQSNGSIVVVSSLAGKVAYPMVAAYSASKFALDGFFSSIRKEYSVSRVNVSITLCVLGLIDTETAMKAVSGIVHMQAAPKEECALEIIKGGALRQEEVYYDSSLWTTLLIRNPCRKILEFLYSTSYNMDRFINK

For `C[C@@H](c1ccc(Br)cc1)N1CC[C@](CCC(N)=O)(c2ccc(F)cc2)CC1=O` (single isomer, unassigned) [EXAMPLE 4 Isomer 1], the inhibition at 0.1 µM turned out to be 96.8% and the concentration for half-maximal inhibition (IC50) was < 100 nM.
`C[C@@H](c1ccc(-c2cc[nH]c(=O)c2)cc1)N1CC[C@](CC(C)(C)O)(c2ccccc2)CC1=O` [EXAMPLE 12, 4-(4-((S)-1-((R)-4-(2-hydroxy-2-methylpropyl)-2-oxo-4-phenylpiperidin-1-yl)ethyl)phenyl)pyridin-2(1H)-one]: the inhibition at 0.1 µM was 95.9% and the 50% inhibitory concentration (IC50) is < 100 nM.
In the case of `C[C@@H](c1ccc(Br)cc1)N1CC[C@](CC(C)(C)C#N)(c2ccccc2)CC1=O` [EXAMPLE 10, 3-((S)-1-((S)-1-(4-bromophenyl)ethyl)-2-oxo-4-phenylpiperidin-4-yl)-2,2-dimethylpropanenitrile], the inhibition at 0.1 µM worked out at 96% and the IC50 is < 100 nM.
On the same counts, the results for `C[C@@H](c1ccc(-c2ccn(C)c(=O)c2)cc1)N1CC[C@](CC(C)(C)O)(c2ccccc2)CC1=O` [EXAMPLE 8, 4-(4-((S)-1-((R)-4-(2-hydroxy-2-methylpropyl)-2-oxo-4-phenylpiperidin-1-yl)ethyl)phenyl)-1-methylpyridin-2(1H)-one] are 93% and < 100 nM.
As to `C[C@@H](c1ccc(-c2ccc(=O)[nH]c2)cc1)N1CC[C@](CC(C)(C)O)(c2ccccc2)CC1=O` [EXAMPLE 13, 5-(4-((S)-1-((R)-4-(2-hydroxy-2-methylpropyl)-2-oxo-4-phenylpiperidin-1-yl)ethyl)phenyl)pyridin-2(1H)-one], the inhibition at 0.1 µM came out at 94.3% and the concentration for half-maximal inhibition (IC50) is < 100 nM.
On the same counts, the results for `CC[C@@H](c1ccc(Br)cc1)N1CC[C@@](CC(C)(C)O)(c2ccccc2)CC1=O` (single isomer, unassigned) [EXAMPLE 6 Isomer 2] are 82.6% and < 100 nM.
For `C[C@@H](c1ccc(-c2ccc(=O)n(C)c2)cc1)N1CC[C@](CCCO)(c2ccc(F)cc2)CC1=O` (single isomer, unassigned) [EXAMPLE 5 Isomer 1], the inhibition at 0.1 µM came out at 94% and the IC50 was < 100 nM.
With `C[C@@H](c1ccc(Br)cc1)N1CC[C@](CC(C)(C)O)(c2ccccc2)CC1=O` [EXAMPLE 7, (R)-1-((S)-1-(4-bromophenyl)ethyl)-4-(2-hydroxy-2-methylpropyl)-4-phenylpiperidin-2-one], the inhibition at 0.1 µM stood at 98% and the IC50 was < 100 nM.
On to `C[C@@H](c1ccc(Br)cc1)N1CC[C@@](CCC(N)=O)(c2ccc(F)cc2)CC1=O` (single isomer, unassigned) [EXAMPLE 4 Isomer 2], for which the inhibition at 0.1 µM amounted to 27.8% and the half-maximal inhibitory concentration (IC50) was > 100 nM.
In the case of `C[C@@H](c1ccc(Br)cc1)N1CC[C@](CCO)(c2ccccc2)CC1=O` (single isomer, unassigned) [EXAMPLE 2 Isomer 1], the inhibition at 0.1 µM is 101% and the IC50 was < 100 nM.
Consider `C[C@@H](c1ccc(Br)cc1)N1CC[C@](CC(C)(C)C(N)=O)(c2ccccc2)CC1=O` [EXAMPLE 11, 3-((S)-1-((S)-1-(4-bromophenyl)ethyl)-2-oxo-4-phenylpiperidin-4-yl)-2,2-dimethylpropanamide], for which the inhibition at 0.1 µM was found to be 95.5% and the IC50 is < 100 nM.
Turning to `C[C@@H](c1ccc(-c2ccc(=O)n(C)c2)cc1)N1CC[C@@](CCCO)(c2ccc(F)cc2)CC1=O` (single isomer, unassigned) [EXAMPLE 5 Isomer 2], the inhibition at 0.1 µM turned out to be 10.7% and the IC50 is > 100 nM.
On the same counts, the results for `C[C@@H](c1ccc(Br)cc1)N1CC[C@@](CCO)(c2ccccc2)CC1=O` (single isomer, unassigned) [EXAMPLE 2 Isomer 2] are 73.8% and < 100 nM.
On the same counts, the results for `C[C@@H](c1ccc(-c2ccc(F)cc2)cc1)N1CC[C@](CCO)(c2ccccc2)CC1=O` (single isomer, unassigned) [EXAMPLE 3 Isomer 1] are 97.9% and < 100 nM.
On the same counts, the results for `C[C@@H](c1ccc(-c2ccc(F)cc2)cc1)N1CC[C@@](CCO)(c2ccccc2)CC1=O` (single isomer, unassigned) [EXAMPLE 3 Isomer 2] are 61.3% and < 100 nM.
For the molecule `C[C@@H](c1ccc(-c2ccc(=O)n(C)c2)cc1)N1CC[C@](CC(C)(C)O)(c2ccccc2)CC1=O` [EXAMPLE 9, 5-(4-((S)-1-((R)-4-(2-hydroxy-2-methylpropyl)-2-oxo-4-phenylpiperidin-1-yl)ethyl)phenyl)-1-methylpyridin-2(1H)-one], the inhibition at 0.1 µM is 92.7% and the half-inhibitory concentration (IC50) was < 100 nM.
On the same counts, the results for `CC[C@@H](c1ccc(Br)cc1)N1CC[C@](CC(C)(C)O)(c2ccccc2)CC1=O` (single isomer, unassigned) [EXAMPLE 6 Isomer 1] are 98.3% and < 100 nM.
